# Test results from ChEMBL document CHEMBL1201862, “PubChem BioAssay data set” (2004).
#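 A five-concentration, 48-hour dose response in 96-well plates underlies each endpoint, interpolated linearly between surrounding concentrations. The concentration for 50% growth inhibition is given as GI50.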 The source made the active and inactive calls. Rule as the data show it: active = GI50 up to about 1.1 µM and inactive = higher.
# Assays:
# Test in all cases: DTP human tumour cell line panel, 48 h
# [1] = system: 786-0
# [2] = system: A498
# [3] = system: A549
# [4] = system: ACHN
# [5] = system: BT-549
# [6] = system: CAKI-1
# [7] = system: CCRF-CEM
# [8] = system: COLO 205
# [9] = system: DU-145
# [10] = system: EKVX
# [11] = system: HCC 2998
# [12] = system: HCT-116
# [13] = system: HCT-15
# [14] = system: HL-60
# [15] = system: HOP-62
# [16] = system: HOP-92
# [17] = system: HT-29
# [18] = system: Hs-578T
# [19] = system: IGROV-1
# [20] = system: K562
# [21] = system: KM12
# [22] = system: LOX IMVI
# [23] = system: M14
# [24] = system: MCF7
# [25] = system: MDA-MB-231
# [26] = system: MDA-MB-435
# [27] = system: MDA-N
# [28] = system: Malme-3M
# [29] = system: NCI-H23
# [30] = system: NCI-H460
# [31] = system: NCI-H522
# [32] = system: NCI/ADR-RES
# [33] = system: OVCAR-3
# [34] = system: OVCAR-4
# [35] = system: OVCAR-5
# [36] = system: OVCAR-8
# [37] = system: PC-3
# [38] = system: RPMI-8226
# [39] = system: RXF 393
# [40] = system: SF-268
# [41] = system: SF-295
# [42] = system: SF-539
# [43] = system: SK-MEL-28
# [44] = system: SK-MEL-2
# [45] = system: SK-MEL-5
# [46] = system: SK-OV-3
# [47] = system: SN12C
# [48] = system: SNB-19
# [49] = system: SNB-75
# [50] = system: SR
# [51] = system: SW-620
# [52] = system: T47D
# [53] = system: TK-10
# [54] = system: U-251
# [55] = system: UACC-257
# [56] = system: UACC-62
# [57] = system: UO-31
# [58] = system: MOLT-4
# [59] = system: NCI-H226
compound,measurement,setting,value
Nc1nc(-c2cccs2)cs1,GI50,[1],> 100 µM (inactive)
same,GI50,[2],> 100 µM (inactive)
same,GI50,[3],58.6 µM (inactive)
same,GI50,[4],98.6 µM (inactive)
same,GI50,[5],95.5 µM (inactive)
same,GI50,[6],> 100 µM (inactive)
same,GI50,[7],29 µM (inactive)
same,GI50,[8],88.1 µM (inactive)
same,GI50,[9],> 100 µM (inactive)
same,GI50,[10],43.3 µM (inactive)
same,GI50,[11],57.9 µM (inactive)
same,GI50,[12],56.8 µM (inactive)
same,GI50,[13],83.4 µM
same,GI50,[14],> 100 µM (inactive)
same,GI50,[15],> 100 µM (inactive)
same,GI50,[16],26.4 µM (inactive)
same,GI50,[17],> 100 µM (inactive)
same,GI50,[18],37.9 µM (inactive)
same,GI50,[19],47.3 µM (inactive)
same,GI50,[20],> 100 µM (inactive)
same,GI50,[21],81.7 µM (inactive)
same,GI50,[22],79.1 µM (inactive)
same,GI50,[23],> 100 µM (inactive)
same,GI50,[24],91.8 µM (inactive)
same,GI50,[25],60.4 µM (inactive)
same,GI50,[26],79.8 µM (inactive)
same,GI50,[27],45.7 µM (inactive)
same,GI50,[28],> 100 µM (inactive)
same,GI50,[29],> 100 µM (inactive)
same,GI50,[30],47.9 µM (inactive)
same,GI50,[31],34.9 µM (inactive)
same,GI50,[32],91 µM (inactive)
same,GI50,[33],> 100 µM (inactive)
same,GI50,[34],> 100 µM (inactive)
same,GI50,[35],> 100 µM (inactive)
same,GI50,[36],58.7 µM (inactive)
same,GI50,[37],67.9 µM (inactive)
same,GI50,[38],90.8 µM (inactive)
same,GI50,[39],> 100 µM (inactive)
same,GI50,[40],> 100 µM (inactive)
same,GI50,[41],64.4 µM (inactive)
same,GI50,[42],> 100 µM (inactive)
same,GI50,[43],> 100 µM (inactive)
same,GI50,[44],> 100 µM (inactive)
same,GI50,[45],73.3 µM (inactive)
same,GI50,[46],> 100 µM (inactive)
same,GI50,[47],> 100 µM (inactive)
same,GI50,[48],> 100 µM (inactive)
same,GI50,[49],> 100 µM (inactive)
same,GI50,[50],69.5 µM (inactive)
same,GI50,[51],> 100 µM (inactive)
same,GI50,[52],66.8 µM (inactive)
same,GI50,[53],87.9 µM (inactive)
same,GI50,[54],71.3 µM (inactive)
same,GI50,[55],> 100 µM (inactive)
same,GI50,[56],83.9 µM (inactive)
same,GI50,[57],54.6 µM (inactive)
Cc1cc(C)n(-c2nc(C)c(CCO)c(=O)[nH]2)n1,GI50,[1],> 100 µM (inactive)
same,GI50,[3],> 100 µM (inactive)
same,GI50,[4],> 100 µM (inactive)
same,GI50,[5],> 100 µM (inactive)
same,GI50,[6],> 10 µM (inactive)
same,GI50,[7],> 100 µM (inactive)
same,GI50,[8],> 100 µM (inactive)
same,GI50,[9],> 100 µM (inactive)
same,GI50,[10],> 100 µM (inactive)
same,GI50,[11],> 100 µM (inactive)
same,GI50,[12],> 100 µM (inactive)
same,GI50,[13],> 100 µM
same,GI50,[14],> 100 µM (inactive)
same,GI50,[15],> 100 µM (inactive)
same,GI50,[16],> 100 µM (inactive)
same,GI50,[17],> 100 µM (inactive)
same,GI50,[18],> 100 µM (inactive)
same,GI50,[19],> 100 µM (inactive)
same,GI50,[20],> 100 µM (inactive)
same,GI50,[21],> 100 µM (inactive)
same,GI50,[22],> 100 µM (inactive)
same,GI50,[23],> 100 µM (inactive)
same,GI50,[24],> 100 µM (inactive)
same,GI50,[25],> 100 µM (inactive)
same,GI50,[26],> 100 µM (inactive)
same,GI50,[27],> 100 µM (inactive)
same,GI50,[58],> 100 µM (inactive)
same,GI50,[28],> 100 µM (inactive)
same,GI50,[59],> 100 µM (inactive)
same,GI50,[29],> 100 µM (inactive)
same,GI50,[30],> 100 µM (inactive)
same,GI50,[31],> 100 µM (inactive)
same,GI50,[32],52 µM (inactive)
same,GI50,[33],> 100 µM (inactive)
same,GI50,[34],> 100 µM (inactive)
same,GI50,[35],> 100 µM (inactive)
same,GI50,[36],> 100 µM (inactive)
same,GI50,[37],> 100 µM (inactive)
same,GI50,[38],> 100 µM (inactive)
same,GI50,[39],> 100 µM (inactive)
same,GI50,[40],> 100 µM (inactive)
same,GI50,[41],> 100 µM (inactive)
same,GI50,[42],> 100 µM (inactive)
same,GI50,[43],> 100 µM (inactive)
same,GI50,[45],> 100 µM (inactive)
same,GI50,[46],> 100 µM (inactive)
same,GI50,[47],> 100 µM (inactive)
same,GI50,[48],> 100 µM (inactive)
same,GI50,[49],97.5 µM (inactive)
same,GI50,[50],> 100 µM (inactive)
same,GI50,[51],> 100 µM (inactive)
same,GI50,[52],> 100 µM (inactive)
same,GI50,[53],> 100 µM (inactive)
same,GI50,[54],> 100 µM (inactive)
same,GI50,[55],> 100 µM (inactive)
same,GI50,[56],> 100 µM (inactive)
same,GI50,[57],> 100 µM (inactive)
O=C1c2ccccc2C(=O)N1c1ccc(OCCN2CCCCC2)cc1,GI50,[1],> 100 µM (inactive)
same,GI50,[2],> 100 µM (inactive)
same,GI50,[3],> 100 µM (inactive)
same,GI50,[4],> 100 µM (inactive)
same,GI50,[5],> 100 µM (inactive)
same,GI50,[6],> 100 µM (inactive)
same,GI50,[7],> 100 µM (inactive)
same,GI50,[8],> 100 µM (inactive)
same,GI50,[9],> 100 µM (inactive)
same,GI50,[10],> 100 µM (inactive)
same,GI50,[11],> 100 µM (inactive)
same,GI50,[12],> 100 µM (inactive)
same,GI50,[13],> 100 µM
same,GI50,[14],> 100 µM (inactive)
same,GI50,[15],> 100 µM (inactive)
same,GI50,[16],> 100 µM (inactive)
same,GI50,[17],> 100 µM (inactive)
same,GI50,[18],> 100 µM (inactive)
same,GI50,[19],> 100 µM (inactive)
same,GI50,[20],> 100 µM (inactive)
same,GI50,[21],> 100 µM (inactive)
same,GI50,[22],> 100 µM (inactive)
same,GI50,[23],> 100 µM (inactive)
same,GI50,[24],> 100 µM (inactive)
same,GI50,[25],> 100 µM (inactive)
same,GI50,[26],> 100 µM (inactive)
same,GI50,[27],> 100 µM (inactive)
same,GI50,[58],> 100 µM (inactive)
same,GI50,[28],> 100 µM (inactive)
same,GI50,[59],> 100 µM (inactive)
same,GI50,[29],> 100 µM (inactive)
same,GI50,[30],> 100 µM (inactive)
same,GI50,[31],> 100 µM (inactive)
same,GI50,[32],> 100 µM (inactive)
same,GI50,[33],> 100 µM (inactive)
same,GI50,[34],> 100 µM (inactive)
same,GI50,[35],> 100 µM (inactive)
same,GI50,[36],> 100 µM (inactive)
same,GI50,[37],> 100 µM (inactive)
same,GI50,[38],> 100 µM (inactive)
same,GI50,[39],> 100 µM (inactive)
same,GI50,[40],> 100 µM (inactive)
same,GI50,[41],> 100 µM (inactive)
same,GI50,[42],> 100 µM (inactive)
same,GI50,[43],> 100 µM (inactive)
same,GI50,[44],> 100 µM (inactive)
same,GI50,[45],> 100 µM (inactive)
same,GI50,[46],> 100 µM (inactive)
same,GI50,[47],> 100 µM (inactive)
same,GI50,[48],> 100 µM (inactive)
same,GI50,[50],> 100 µM (inactive)
same,GI50,[51],> 100 µM (inactive)
same,GI50,[52],> 100 µM (inactive)
same,GI50,[53],> 100 µM (inactive)
same,GI50,[54],> 100 µM (inactive)
same,GI50,[55],> 100 µM (inactive)
same,GI50,[56],> 100 µM (inactive)
